The values that follow come from article PMC5198017, “The Influence of Solid Microneedles on the Transdermal Delivery of Selected Antiepileptic Drugs” (Pharmaceutics, 2016).

Structures can show the parent of a compound that is named as a salt. Where two headings read alike, the source gives them in different places.

Details of data set [1]: method as in PMID 23454133. To be noted: after application of nanostructured lipid carriers; cited from earlier work.
For data set [2] the following is noted: cited from earlier work.
The conditions of data set [3]: cited from earlier work. The source holds these as a separate data set.
For data set [4] the following is noted: cited from earlier work. The source holds these as a separate data set.
A short description of data set [5]: In vitro diffusion studies with vertical Franz diffusion cells across untreated and microneedle-treated skin. The format is in vitro ADME, pig. To be noted: for Transdermal flux, Microneedle: 500 μm microneedle roller-treated porcine ear skin; for Transdermal flux, Microneedle / Transdermal flux, Passive: 12 h, ± SD, n = 6; for Transdermal flux, Passive: untreated porcine ear skin; for Statistical significance of difference in flux, untreated versus microneedle-treated skin: porcine skin, carbamazepine as 20% and 30% ethanol solutions, p < 0.05 considered significant. On the procedure: Pig ears were purchased from Pel-Freez Arkansas LLC (Rogers, AR, USA). Upon arrival, ears were shaved with an electric hair clipper. Full-thickness skins were obtained by using a scalpel to remove subcutaneous fat from ear cartilage. An electric dermatome (Nouvag®, Goldach, Switzerland) was used to prepare split-thickness skins. The thickness of the skin samples was determined with the Digimatic micrometer (Mitutoyo, Tokyo, Japan). Skin membranes were wrapped in aluminum foil and stored at -20 °C until ready for use. Experiments were approved by the Institutional Animal Care and Use Committee (IACUC) and Institutional Biosafety Committee (IBC) of Touro University, Mare Island-Vallejo, CA, USA. Microchannels were created on porcine skins using solid microneedle rollers and skin samples were then clamped to the diffusion cells. The roller was applied to the pig ear skin 15 times (five times in the vertical, horizontal and diagonal directions). The roller was applied with a force of 5 kg (measured with a weighing balance) for approximately 1 min per application. Three microneedle-treated split-thickness skin (STS) samples were used for the experiment while three untreated skin samples served as controls. […] The drug was placed on porcine skin. The pig skin was sandwiched between the donor and receptor compartments of Franz diffusion cells. The donor compartment and covered with parafilm and aluminum foil to reduce evaporation. The sampling ports were also sealed. […] Extractions were stored in 2 mL amber vials from Agilent Technologies (Agilent, Santa Clara, CA, USA) and stored at -8 °C until shipment to the University of Idaho for analysis. Receptor chambers were replenished after each extraction with 1 mL of fresh, pre-warmed PBS maintained at 37 °C. We carried out in vitro diffusion studies with six vertical Franz Diffusion cells (PermeGear, Hellertown, PA, USA). Each cell has donor compartments and receptor compartments. In each cell, there is a magnetic stirrer, sampling port, and a water jacket maintained at a 37 °C model human body temperature. The receptor compartment has a diffusion area of 1.77 cm^2 and the volume is 12 mL. The receptor compartment was filled with PBS, and we utilized high-vacuum grease (Dow Corning, Midland, MA, USA) and a metal clamp to prevent loss of the drug solution through lateral diffusion. HPLC analysis was performed using an Agilent 1200 Series HPLC system with a diode array detection (DAD) system coupled to an Agilent […] TOF-MS system equipped with an ESI source (Agilent, Santa Clara, CA, USA). […] The injection volume was 5 μL. The mobile phase comprised of 0.1% formic acid in water (solvent A) and 0.1% formic acid in methanol (solvent B). We first used a linear gradient from 15% to 95% B in 7 min, and then isocratic elution was carried out at 95% B for 2 min. The final equilibration was conducted at 15% B for 5 min. We diverted the flow from the mass spectrometer for the first 3 min of the analysis, in order to prevent MS contamination and ion suppression. The flow rate was 0.3 mL·min^-1. The average cumulative amount of drug permeation through porcine skin was plotted as a function of time. Steady-state flux was calculated from the linear portion of the average cumulative amount versus time curve. Six replicates were utilized for each drug. […] (1) […] Statistical analysis was performed using GraphPad Prism 7 (GraphPad Software, Inc., La Jolla, CA, USA). The Mann-Whitney Rank Sum test was carried out to determine statistical significance. […] The average of replicate measurements (n = 6) with corresponding standard deviation was used to plot the graphs.

Where [6] appears, read: carbamazepine 1 mg/mL in 20% ethanol/PBS, listed as Carbamazepine in 20% ethanol.
[7] abbreviates: carbamazepine 1 mg/mL in 30% ethanol/PBS.
Setting [8] is: tiagabine hydrochloride 5 mg/mL in PBS.

In general, Aqueous solubility refers to the concentration that dissolves in the medium under given conditions.

`Cc1cc2c(s1)Nc1ccccc1N=C2N1CCN(C)CC1` [olanzapine]: the Transdermal flux enhancement entry in data set [1] is “did not observe significant transdermal flux enhancement”.

In the case of `NC(=O)N1c2ccccc2C=Cc2ccccc21` [Carbamazepine, carbamazepine], in data set [2], the Clearance is 1.87 ± 0.245 mL/min/kg and the “Excreted in urine unchanged” value was 1%. Further, the Partition coefficient in data set [3] is recorded as 2.7 ± 0.3. Further, the Aqueous solubility in data set [4] (at 32 °C in phosphate buffer saline of pH 7.4) is 440.6 ± 20.6 µg/mL. Besides, in data set [5] (setting [6]), the “Transdermal flux, Microneedle” value stood at 10.85 ± 0.11 µg/cm^2/h and the “Transdermal flux, Passive” value turned out to be 7.85 ± 0.60 µg/cm^2/h. Also, in data set [5] (setting [7]), the “Transdermal flux, Microneedle” value stood at 36.73 ± 1.83 µg/cm^2/h and the “Transdermal flux, Passive” value is reported as 30.74 ± 1.32 µg/cm^2/h. Moreover, the “Statistical significance of difference in flux, untreated versus microneedle-treated skin” value in data set [5] is “not statistically significant”.

Take `Cc1ccsc1C(=CCCN1CCC[C@@H](C(=O)O)C1)c1sccc1C` [Tiagabine hydrochloride, tiagabine hydrochloride]: the “Blood–brain barrier passage” value in data set [2] (after drug administration) is “readily cross the blood–brain barrier”. For the same compound, in data set [2], the “Unchanged when excreted as urine” value is reported as “less than 1%” and the Volume of distribution was 1 L/kg. For the same compound, the Partition coefficient in data set [3] (tiagabine hydrochloride) is on record as 2.6. In addition, the Aqueous solubility in data set [4] (tiagabine hydrochloride) was 10000 µg/mL. Further, the “Statistical significance of difference in flux, untreated versus microneedle-treated skin” value in data set [5] is listed as “statistically significant”. In addition, in data set [5] (setting [8]), the “Transdermal flux, Microneedle” value is 86.42 ± 25.66 µg/cm^2/h and the “Transdermal flux, Passive” value worked out at 12.83 ± 6.30 µg/cm^2/h. For the same compound, in data set [5] (tiagabine hydrochloride in PBS, microneedle versus passive), the “Flux Increase” value is listed as 6.74 fold.
